Experimental data as given in patent US20200038513A1, “MODULATORS OF FAK PROTEOLYSIS AND ASSOCIATED METHODS OF USE” (ARVINAS OPERATIONS, INC., priority 2018, published 2020).

Tested on: MDA-MB-231 cells
Assay: RPPA (reverse phase protein array)
Assay type: cell-based, human
Protocol: RPPA analysis was performed by MD Anderson Cancer Center RPPA core facility.
Examination of the Molecular Signaling Events) and/or Downstream Pathways Responsible for the Migration and Invasion Effects Observed by Exemplary Compound Treatment. To pinpoint these observations to a molecular signaling event or specific downstream pathway, reverse phase protein array (RPPA) analysis was performed (Table 4).

CNC(=O)c1ccc(Nc2ncc(C(F)(F)F)c(NCc3nccnc3N(C)S(C)(=O)=O)n2)cc1 [Defactinib, defactinib, reference compound]
rel. Protein level, Merlin (1000nM): 99.3%
rel. Protein level, Mnk1 (1000nM): 97.5%
rel. Protein level, Myosin-11 (1000nM): 100.9%
rel. Protein level, Myosin-IIa_pS1943 (1000nM): 108.6%
rel. Protein level, Myt1 (1000nM): 94.5%
rel. Protein level, N-Cadherin (1000nM): 107.8%
rel. Protein level, N-Ras (1000nM): 93.7%
rel. Protein level, NAPSIN-A (1000nM): 99.4%
rel. Protein level, NDRG1_pT346 (1000nM): 103.5%
rel. Protein level, NDUFB4 (1000nM): 96.3%
rel. Protein level, NF-kB-p65_pS536 (1000nM): 105.0%
rel. Protein level, Notch1 (1000nM): 96.2%
rel. Protein level, Notch3 (1000nM): 105.9%
rel. Protein level, Oct-4 (1000nM): 100.5%
rel. Protein level, P-Cadherin (1000nM): 104.3%
rel. Protein level, PAI-1 (1000nM): 106.1%
rel. Protein level, PAICS (1000nM): 98.7%
rel. Protein level, PAK1 (1000nM): 107.0%
rel. Protein level, PAK4 (1000nM): 95.5%
rel. Protein level, PAR (1000nM): 135.9%
rel. Protein level, PARP (1000nM): 98.0%
rel. Protein level, PCNA (1000nM): 88.7%
rel. Protein level, PD-1 (1000nM): 107.0%
rel. Protein level, PD-L1 (1000nM): 92.6%
rel. Protein level, PDGFR-b (1000nM): 138.5%
rel. Protein level, PDHK1 (1000nM): 102.5%
rel. Protein level, PDK1 (1000nM): 99.8%
rel. Protein level, PDK1_pS241 (1000nM): 97.4%
rel. Protein level, PEA-15 (1000nM): 98.7%
rel. Protein level, PEA-15_pS116 (1000nM): 97.0%
rel. Protein level, PI3K-p85 (1000nM): 100.0%
rel. Protein level, PI3K-p110-a (1000nM): 103.7%
rel. Protein level, PI3K-p110-b (1000nM): 98.5%
rel. Protein level, PKA-a (1000nM): 99.6%
rel. Protein level, PKC-b-II_pS660 (1000nM): 98.6%
rel. Protein level, PKC-delta_pS664 (1000nM): 100.9%
rel. Protein level, PKCa (1000nM): 110.1%
rel. Protein level, PKM2 (1000nM): 106.2%
rel. Protein level, PLC-gamma2_pY759 (1000nM): 97.2%
rel. Protein level, PLK1 (1000nM): 82.1%
rel. Protein level, PMS2 (1000nM): 98.6%
rel. Protein level, PR (1000nM): 100.3%
rel. Protein level, PRAS40 (1000nM): 98.3%
rel. Protein level, PRAS40_pT246 (1000nM): 90.7%
rel. Protein level, PREX1 (1000nM): 105.2%
rel. Protein level, PTEN (1000nM): 108.6%
rel. Protein level, Paxillin (1000nM): 105.5%
rel. Protein level, Pdcd4 (1000nM): 117.5%
rel. Protein level, Porin (1000nM): 95.2%
rel. Protein level, RBM15 (1000nM): 103.9%
rel. Protein level, RIP (1000nM): 103.7%
rel. Protein level, RPA32 (1000nM): 96.8%
rel. Protein level, RPA32_pS4-S8 (1000nM): 93.9%
rel. Protein level, RSK (1000nM): 104.4%
rel. Protein level, Rab11 (1000nM): 101.7%
rel. Protein level, Rab25 (1000nM): 97.8%
rel. Protein level, Rad50 (1000nM): 104.7%
rel. Protein level, Rad51 (1000nM): 102.1%
rel. Protein level, Raptor (1000nM): 98.9%
rel. Protein level, Rb (1000nM): 93.9%
rel. Protein level, Rb_pS807_S811 (1000nM): 84.3%
rel. Protein level, Rheb (1000nM): 91.7%
rel. Protein level, Rictor (1000nM): 111.8%
rel. Protein level, Rictor_pT1135 (1000nM): 90.0%
rel. Protein level, S6 (1000nM): 102.7%
rel. Protein level, S6_pS235_S236 (1000nM): 50.9%
rel. Protein level, S6_pS240_S244 (1000nM): 49.1%
rel. Protein level, b-Actin (1000nM): 101.1%
rel. Protein level, b-Catenin (1000nM): 100.0%
rel. Protein level, b-Catenin_pT41_S45 (1000nM): 98.3%
rel. Protein level, c-Abl (1000nM): 109.1%
rel. Protein level, c-IAP2 (1000nM): 94.3%
rel. Protein level, c-Jun_pS73 (1000nM): 92.7%
rel. Protein level, c-Kit (1000nM): 101.5%
rel. Protein level, c-Met_pY1234_Y1235 (1000nM): 98.9%
rel. Protein level, c-Myc (1000nM): 95.9%
rel. Protein level, cdc2_pY15 (1000nM): 90.1%
rel. Protein level, cdc25C (1000nM): 98.2%
rel. Protein level, eEF2 (1000nM): 94.8%
rel. Protein level, eEF2K (1000nM): 116.4%
rel. Protein level, eIF4E (1000nM): 105.5%
rel. Protein level, eIF4E_pS209 (1000nM): 95.7%
rel. Protein level, eIF4G (1000nM): 95.8%
rel. Protein level, mTOR (1000nM): 92.1%
rel. Protein level, mTOR_pS2448 (1000nM): 88.3%
rel. Protein level, p21 (1000nM): 100.5%
rel. Protein level, p27-Kip-1 (1000nM): 96.7%
rel. Protein level, p27_pT198 (1000nM): 96.4%
rel. Protein level, p38-MAPK (1000nM): 94.3%
rel. Protein level, p38_pT180_Y182 (1000nM): 100.6%
rel. Protein level, p44-42-MAPK (1000nM): 108.2%
rel. Protein level, p53 (1000nM): 93.7%
rel. Protein level, p70-S6K1 (1000nM): 111.0%
rel. Protein level, p70-S6K_pT389 (1000nM): 95.5%
rel. Protein level, p90RSK_pT573 (1000nM): 98.9%
rel. Protein level [%], SCD (antibody SCD, 1000nM, n = 2): 98.9%
rel. Protein level [%], SDHA (antibody SDHA, 1000nM, n = 2): 103.8%
rel. Protein level [%], SF2 (antibody SF2, 1000nM, n = 2): 95.8%
rel. Protein level [%], SHP-2_pY542 (antibody SHP-2_pY542, 1000nM, n = 2): 97.2%
rel. Protein level [%], SLC1A5 (antibody SLC1A5, 1000nM, n = 2): 111.6%
rel. Protein level [%], SOD1- (antibody SOD1-, 1000nM, n = 2): 97.7%
rel. Protein level [%], SOD2 (antibody SOD2, 1000nM, n = 2): 106.0%
rel. Protein level [%], STING (antibody STING, 1000nM, n = 2): 135.4%
rel. Protein level [%], Shc_pY317 (antibody Shc_pY317, 1000nM, n = 2): 104.3%
rel. Protein level [%], Slfn11 (antibody Slfn11, 1000nM, n = 2): 95.9%
rel. Protein level [%], Smac (antibody Smac, 1000nM, n = 2): 99.9%
rel. Protein level [%], Smad1 (antibody Smad1, 1000nM, n = 2): 97.8%
rel. Protein level [%], Smad3 (antibody Smad3, 1000nM, n = 2): 102.3%
rel. Protein level [%], Smad4 (antibody Smad4, 1000nM, n = 2): 95.2%
rel. Protein level [%], Snail (antibody Snail, 1000nM, n = 2): 101.3%
rel. Protein level [%], Sox2 (antibody Sox2, 1000nM, n = 2): 100.5%
rel. Protein level [%], Src (antibody Src, 1000nM, n = 2): 103.9%
rel. Protein level [%], Src_pY419 (antibody Src_pY419, 1000nM, n = 2): 99.6%
rel. Protein level [%], Src_pY527 (antibody Src_pY527, 1000nM, n = 2): 93.7%
rel. Protein level [%], Stat3 (antibody Stat3, 1000nM, n = 2): 92.9%
rel. Protein level [%], Stat3_pY705 (antibody Stat3_pY705, 1000nM, n = 2): 100.5%
rel. Protein level [%], Stat5a (antibody Stat5a, 1000nM, n = 2): 108.2%
rel. Protein level [%], Stathmin-1 (antibody Stathmin-1, 1000nM, n = 2): 99.3%
rel. Protein level [%], Syk (antibody Syk, 1000nM, n = 2): 95.8%
rel. Protein level [%], TAZ (antibody TAZ, 1000nM, n = 2): 100.5%
rel. Protein level [%], TFAM (antibody TFAM, 1000nM, n = 2): 101.4%
rel. Protein level [%], TFRC (antibody TFRC, 1000nM, n = 2): 96.3%
rel. Protein level [%], TIGAR (antibody TIGAR, 1000nM, n = 2): 100.5%
rel. Protein level [%], TRIM25 (antibody TRIM25, 1000nM, n = 2): 99.8%
rel. Protein level [%], TSC1 (antibody TSC1, 1000nM, n = 2): 102.5%
rel. Protein level [%], TTF1 (antibody TTF1, 1000nM, n = 2): 95.4%
rel. Protein level [%], TUFM (antibody TUFM, 1000nM, n = 2): 98.4%
rel. Protein level [%], TWIST (antibody TWIST, 1000nM, n = 2): 97.7%
rel. Protein level [%], Tau (antibody Tau, 1000nM, n = 2): 102.9%
rel. Protein level [%], Transglutaminase (antibody Transglutaminase, 1000nM, n = 2): 93.5%
rel. Protein level [%], Tuberin (antibody Tuberin, 1000nM, n = 2): 101.7%
rel. Protein level [%], Tuberin_pT1462 (antibody Tuberin_pT1462, 1000nM, n = 2): 93.6%
rel. Protein level [%], Tyro3 (antibody Tyro3, 1000nM, n = 2): 98.5%
rel. Protein level [%], U-Histone-H2B (antibody U-Histone-H2B, 1000nM, n = 2): 113.8%
rel. Protein level [%], UBAC1 (antibody UBAC1, 1000nM, n = 2): 99.7%
rel. Protein level [%], UGT1A (antibody UGT1A, 1000nM, n = 2): 98.6%
rel. Protein level [%], ULK1_pS757 (antibody ULK1_pS757, 1000nM, n = 2): 102.1%
rel. Protein level [%], VASP (antibody VASP, 1000nM, n = 2): 100.5%
rel. Protein level [%], VEGFR-2 (antibody VEGFR-2, 1000nM, n = 2): 93.5%
rel. Protein level [%], VHL-EPPK1 (antibody VHL-EPPK1, 1000nM, n = 2): 88.7%
rel. Protein level [%], WIPI1 (antibody WIPI1, 1000nM, n = 2): 102.3%
rel. Protein level [%], WIPI2 (antibody WIPI2, 1000nM, n = 2): 106.2%
rel. Protein level [%], Wee1 (antibody Wee1, 1000nM, n = 2): 95.3%
rel. Protein level [%], Wee1_pS642 (antibody Wee1_pS642, 1000nM, n = 2): 95.2%
rel. Protein level [%], XBP-1 (antibody XBP-1, 1000nM, n = 2): 89.5%
rel. Protein level [%], XPA (antibody XPA, 1000nM, n = 2): 83.5%
rel. Protein level [%], XPF (antibody XPF, 1000nM, n = 2): 100.5%
rel. Protein level [%], XRCC1 (antibody XRCC1, 1000nM, n = 2): 102.3%
rel. Protein level [%], YAP (antibody YAP, 1000nM, n = 2): 93.7%
rel. Protein level [%], YAP_pS127 (antibody YAP_pS127, 1000nM, n = 2): 103.1%
rel. Protein level [%], YB1_pS102 (antibody YB1_pS102, 1000nM, n = 2): 82.7%
rel. Protein level [%], ZAP-70 (antibody ZAP-70, 1000nM, n = 2): 95.1%
